# Measured values taken from ChEMBL document CHEMBL1136926 (J Med Chem, 2009).
# Active and inactive are the calls of the source. No cut-off for these calls is given here. Positions of bridges follow the written chain, without caps; N, C: chain ends. Non-standard residues stand in square brackets, D forms with d. Residues, ends and D or L forms follow the SMILES beside them. dPen = CC(C)(S)[C@@H](N)C(=O)O; Orn = NCCC[C@H](N)C(=O)O
# Key:
# [1] = target: T1, Urotensin-2 receptor (Rattus norvegicus) (UniProt P49684); conditions: Albino, Aorta
# T1 sequence (whole entry): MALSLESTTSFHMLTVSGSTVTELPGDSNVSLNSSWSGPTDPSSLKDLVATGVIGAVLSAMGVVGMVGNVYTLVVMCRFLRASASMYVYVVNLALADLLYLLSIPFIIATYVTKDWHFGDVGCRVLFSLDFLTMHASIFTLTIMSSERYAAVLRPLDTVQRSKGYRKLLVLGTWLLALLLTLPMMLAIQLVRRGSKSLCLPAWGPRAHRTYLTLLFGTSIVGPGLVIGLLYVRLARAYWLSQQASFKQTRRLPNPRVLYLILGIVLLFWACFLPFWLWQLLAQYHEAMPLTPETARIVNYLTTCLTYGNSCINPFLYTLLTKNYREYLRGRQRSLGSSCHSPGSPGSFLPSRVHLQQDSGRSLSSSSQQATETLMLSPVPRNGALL
# Description: Agonist activity at UT2 receptor in Albino rat aorta assessed as induction of aortic contraction
# [2] = target: T1, Urotensin-2 receptor (Rattus norvegicus); assay: Antagonist activity at UT2 receptor in Albino rat aorta assessed as inhibition of […] aortic contraction; format: functional, tissue-based
compound,measurement,setting,value
CC(C)[C@H](NC(=O)[C@@H]1CSSC(C)(C)[C@@H](NC(=O)[C@@H](N)CC(=O)O)C(=O)N[C@@H](Cc2ccccc2)C(=O)N[C@H](Cc2c[nH]c3ccccc23)C(=O)N[C@@H](CCCN)C(=O)N[C@@H](Cc2ccc(O)cc2)C(=O)N1)C(=O)O (H-D[dPen]F[dW][Orn]YCV-OH; disulfide 2-7),pEC50,[1],inactive
same,pKb,[2],8.3
